Results on three compounds are retold here after PubChem BioAssay AID1259411 (Chemical Carcinogenesis Research Information System (CCRIS), 2018).

This data set relates to rodent carcinogenicity bioassays, tumor incidence. The data set is described as follows: CCRIS carcinogenicity studies. The method in brief:
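NCI-built, expert-reviewed records of carcinogenicity and related test outcomes (mutagenicity, tumor promotion/inhibition) compiled from published and report sources, historical span 1985-2011, not updated.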

Molecules are shown by their SMILES. Calls of active or inactive are those of the source. The rule behind the calls is not given here.

`Cc1cnc2ccc3c(nc(N)n3C)c2n1`: the carcinogen call runs as follows: (Species: MONKEY, Strain/Sex: CYNOMOLGUS/FEMALE, Route: GAVAGE, Dose: 0, 10, 20 MG/KG BW FOR 84 MONTHS (STUDY DURATION: 92 MONTHS), Dose: 0, 10, 20 MG/KG BW FOR 84 MONTHS (STUDY DURATION: 92 MONTHS)) “inactive; negative”; (Species: MONKEY, Strain/Sex: CYNOMOLGUS/MALE, Route: GAVAGE, Dose: 0, 10, 20 MG/KG BW FOR 84 MONTHS (STUDY DURATION: 92 MONTHS), Dose: 0, 10, 20 MG/KG BW FOR 84 MONTHS (STUDY DURATION: 92 MONTHS)) “inactive; negative”; (Species: MOUSE, Strain/Sex: B6C3F1/MALE, Route: INTRAPERITONEAL, Dose: 0, 0.625 UMOL IN 35 µL DMSO ON D 1, 8, AND 15 AFTER BIRTH (STUDY DURATION: 8 MO)) “inactive; negative”; (Species: MOUSE, Strain/Sex: B6C3F1/MALE, Route: INTRAPERITONEAL, Dose: 0, 0.625 UMOL IN 35 µL DMSO ON D 1, 8, AND 15 AFTER BIRTH (STUDY DURATION: 12 MO), Tumor Site: Type of Lesion: LIVER: HEPATOCELLULAR ADENOMA) “active; positive”; (Species: MOUSE, Strain/Sex: B6C3F1/MALE, Route: INTRAPERITONEAL, Dose: 0, 1.25 UMOL IN 35 µL DMSO ON D 1, 8, AND 15 AFTER BIRTH (STUDY DURATION: 8 MO)) “inactive; negative”; (Species: MOUSE, Strain/Sex: B6C3F1/MALE, Route: INTRAPERITONEAL, Dose: 0, 1.25 UMOL IN 35 µL DMSO ON D 1, 8, AND 15 AFTER BIRTH (STUDY DURATION: 12 MO), Tumor Site: Type of Lesion: LIVER: HEPATOCELLULAR ADENOMA, HEPATOCELLULAR CARCINOMA) “active; positive”. Moreover, the carcinogen call is “inactive; negative” (Species: MOUSE, Strain/Sex: C57BL/6J/MALE (20/GROUP), Route: DIET, Dose: 0, 30, 300 PPM FOR 78 WK (STUDY DURATION: 78 WK), Dose: 0, 30, 300 PPM FOR 78 WK (STUDY DURATION: 78 WK)); “active; positive” (Species: MOUSE, Strain/Sex: CDF1/FEMALE, Route: ORAL, Dose: 0, 0.06% IN DIET FOR 84 WK (STUDY DURATION: 84 WK), Tumor Site: Type of Lesion: LIVER: TUMOR, LUNG: ADENOMA OR ADENOCARCINOMA); “active; positive” (Species: MOUSE, Strain/Sex: CDF1/MALE, Route: ORAL, Dose: 0, 0.06% IN DIET FOR 84 WK (STUDY DURATION: 84 WK), Tumor Site: Type of Lesion: LIVER: TUMOR, LYMPHATIC SYSTEM: LYMPHOMA OR LEUKEMIA); “active; positive” (Species: RAT, Strain/Sex: F344/FEMALE, Route: ORAL, Dose: 0, 0.04% IN DIET FOR DURATION OF STUDY (STUDY DURATION: 429 D), Tumor Site: Type of Lesion: LIVER: TUMOR, ZYMBAL GLAND: TUMOR, CLITORAL GLAND: TUMOR, Tumor Site: Type of Lesion: LIVER: TUMOR, ZYMBAL GLAND: TUMOR, CLITORAL GLAND: TUMOR); “active; positive” (Species: RAT, Strain/Sex: F344/MALE, Route: ORAL, Dose: 0, 0.04% IN DIET FOR DURATION OF STUDY (STUDY DURATION: 429 D), Tumor Site: Type of Lesion: LIVER: TUMOR, ZYMBAL GLAND: TUMOR, SKIN: TUMOR, Tumor Site: Type of Lesion: LIVER: TUMOR, ZYMBAL GLAND: TUMOR, SKIN: TUMOR); “active; positive” (Species: RAT, Strain/Sex: F344/MALE, Route: ORAL, Dose: 0, 100, 200, 400 PPM IN DIET FOR 56 WK (STUDY DURATION: 56 WK), Dose: 0, 100, 200, 400 PPM IN DIET FOR 56 WK (STUDY DURATION: 56 WK), Tumor Site: Type of Lesion: LIVER: HEPATOCELLULAR ADENOMA, HEPATOCELLULAR CARCINOMA, ZYMBAL GLAND: SQUAMOUS CELL CARCINOMA, SKIN: TUMOR, Tumor Site: Type of Lesion: LIVER: HEPATOCELLULAR ADENOMA, HEPATOCELLULAR CARCINOMA, ZYMBAL GLAND: SQUAMOUS CELL CARCINOMA, SKIN: TUMOR). Moreover, the carcinogen call was “inactive; negative” (Species: RAT, Strain/Sex: LEA/MALE, Route: ORAL, Dose: 0, 40 PPM IN DIET FOR 40 WK (STUDY DURATION: 40 WK)); “active; positive” (Species: RAT, Strain/Sex: LEC/MALE, Route: ORAL, Dose: 0, 40 PPM IN DIET FOR 40 WK (STUDY DURATION: 40 WK), Tumor Site: Type of Lesion: LIVER: TUMOR); “active; positive” (Species: RAT, Strain/Sex: SPRAGUE-DAWLEY/FEMALE, Route: GAVAGE, Dose: 75 MG/KG/D FOR 10 D, THEN PLACED ON A HIGH-FAT DIET (STUDY DURATION: 46 WK), Tumor Site: Type of Lesion: MAMMARY GLAND: CARCINOMA, ADENOMA).

Take `Clc1cccc(-c2cccc(Cl)c2)c1`: where the note is “Species: RAT, Strain/Sex: WISTAR/MALE, Route: ORAL, Dose: 0, 100 PPM IN DIET FOR DURATION OF STUDY (STUDY DURATION: 832 D)”, the carcinogen call is “inactive; negative”.

For `O=[N+]([O-])c1ccc(Nc2ccc(Nc3ccccc3)c(S(=O)(=O)O)c2)c([N+](=O)[O-])c1`, the carcinogen call (Species: MOUSE, Strain/Sex: B6C3F1/FEMALE, Route: GAVAGE, Dose: 0, 250, 500 MG/KG IN CORN OIL 5D/WK FOR 103 WK (STUDY DURATION: 104 WK), Dose: 0, 250, 500 MG/KG IN CORN OIL 5D/WK FOR 103 WK (STUDY DURATION: 104 WK)) is “inactive; negative”; the carcinogen call (Species: MOUSE, Strain/Sex: B6C3F1/MALE, Route: GAVAGE, Dose: 0, 125, 250 MG/KG IN CORN OIL 5D/WK FOR 103 WK (STUDY DURATION: 104 WK), Dose: 0, 125, 250 MG/KG IN CORN OIL 5D/WK FOR 103 WK (STUDY DURATION: 104 WK)) is “inactive; negative”; the carcinogen call (Species: RAT, Strain/Sex: F344/FEMALE, Route: GAVAGE, Dose: 0, 375, 750 MG/KG IN CORN OIL 5D/WK FOR 103 WK (STUDY DURATION: 105 WK), Dose: 0, 375, 750 MG/KG IN CORN OIL 5D/WK FOR 103 WK (STUDY DURATION: 105 WK), Tumor Site: Type of Lesion: KIDNEY: TRANSITIONAL CELL CARCINOMA) was “active; positive”; the carcinogen call (Species: RAT, Strain/Sex: F344/MALE, Route: GAVAGE, Dose: 0, 375 MG/KG IN CORN OIL 5D/WK FOR 103 WK (STUDY DURATION: 104 WK)) is “inactive; negative”.
